Test results taken from US4064227A, “Radioimmunoassay method for the determination of cardiotonic glycosides” (Mallinckrodt, Inc., priority 1975, dated 1977).
Several values for one entry are separate records, joined by “and”; a condition that tells them apart may be missing. Equal values may be shown once.

How the values were obtained:
[1] = system: digoxin antiserum (antibody); experiment: radioimmunoassay: % of I-125 hapten bound by antibody in presence of digoxin standards (standard curve); assay type: binding, goats; settings: for Mean % bound: mean of triplicate; for % bound: single vial
Description: (§1) The relative amounts of antibody bound radioactive hapten and unbound radioactive hapten are then determined. Preferably, this is accomplished by a determination of the radioactive hapten in each vial by means of a gamma counter. The count rate of vial components following removal of the resin strip reflects the serum concentration of cardiotonic glycoside. A precount determination of radioactivity in the vial is made at the outset of the test on a gamma counter. The percent of radioactive hapten which is antibody bound is then calculated as follows: [formula] With increasing quantities of nonradioactive cardiotonic glycoside (patient or standard), the percent radioactive hapten bound by the antibody decreases. Based upon this principle, a standard curve is prepared by plotting the percent radioactive hapten bound by each of a series of standard sera versus their respective cardiotonic glycosides concentration. The patient's total circulating serum cardiotonic glycoside concentration is then readily determined by comparing the percent radioactive hapten bound in the patient's serum sample to the standard curve.
This serum is produced in goats by the monthly injection of 7.5 mg of BSA-Digoxin conjugate emulsified in complete Freunds adjuvant. The conjugate is prepared by periodate oxidation according to Butler and Chen, Biochem J. 1970. Twenty mg are dissolved in one ml of phosphate buffer solution which is added dropwise with rapid mixing through a 1.0 ml tuberculin syringe to an equal volume of complete adjuvant. The material is injected into multiple subcutaneous sites.
The final dilutions are such that they insure binding eq 60 ± 5% of 3-0-succinyl digoxigenin-L-tyrosine* and displacement by non-radioactive digoxin.
A. Reaction vials: To 99 parts phosphate buffer solution add 1 part of reagent alcohol containing 7-100 nCi/10 ul of 3-0-succinyl digoxigenin tyrosine. Mix mechanically for 1 minute and transfer to an automatic pipette or dispensing device. 1 ml of the above prepared combination reagent is transferred to each reaction vial and the vials are stored at -20° C. (or lower).
C. Digoxin, antiserum diluted as described above to contain the dilution of antibody binding 60% of a 7-100 nc quantity of 3-0-succinyl digoxigenin tyrosine 125-I.
(§2) The following procedure is employed in carrying out the radioimmumoassay method of the invention to prepare a standard curve.
(§3) 1. The required number of reaction vials is removed from the freezer and the net precount per minute is determined for each vial during or after thawing. The thawed reaction vials are gently agitated. Preferably, the test is carried out in triplicate.
(§4) 2. 50 microliters each of the 0, 0.4, 1.0, 2.0, 3.0 and 5.0 ng/ml standard is added to 18 reaction vials.
(§5) 3. 50 microliters of antiserum is added to each of the reaction vials and the caps replaced.
(§6) 4. The vial contents are mixed by rotating for one minute on a rotator at 12-14 rpm or by gently agitating the vial rack.
(§7) 5. The reaction vials are incubated at room temperature for 30 minutes ± 5 minutes.
(§8) 6. One ion-exchange resin strip is inserted in each reaction vial and the caps replaced.
(§9) 7. The reaction vials are rotated for 30 minutes at ambient temperature (20° C. to 30° C.) on a rotator which produces end-over-end mixing at 12-14 rpm.
(§10) 8. The resin strips are carefully removed and discarded. The resin strips should be allowed to drain over the vials by touching the strip lightly on top of the vial prior to replacing the vial caps.
(§11) 9. The net postcount per minute is determined for each reaction vial.
(§12) 10. The % I-125 bound is calculated by dividing the net CPM postcount by the net CPM precount and multiplying by 100. [formula]
11. The values obtained should range from 60 + 5% at the 0 ng/ml concentration of digoxin/ml of serum to 20 ± 5% at 10 ng/ml.
The above procedure was followed for 3-succinyl-digoxigenin-L-tyrosin, 3-adipyl-digoxigenin-L-tryosine and 3-carbodigoxigenin-glycyl-L-tyrosine. […]

[2] = system: antiserum containing antibody; experiment: radioimmunoassay: % of I-125 hapten bound by antibody in presence of digitoxin standards (standard curve); assay type: binding; settings: for Mean % bound: mean of triplicate; for % bound: single vial
Description: as §1
These are produced by drying U.S.P. Reference Digitoxin at 100° C. for 2 hours in a vacuum desiccator. 50 mg is quantitatively transferred to a 100 ml volumetric flask and brought to that volume with methyl alcohol at 25° C. After mixing, 1 ml is transferred to another 100 ml volumetric flask and diluted to 10 ml with methyl alcohol. This 10 ml is diluted to 100 ml with distilled water. 1 ml is transferred to a 50 ml volumetric flask and diluted to 50 ml with digitoxin free normal human serum containing 0.1% NaN3. The product contains 100 ng/ml of digitoxin. This is diluted with normal human serum containing to 0.1% NaN3 to form a […] standard.
as §2, §3, §4, §5, §6, §7, §8, §9, §10, §11, §12
Essentially the same procedure was followed for 3-succinyl-digitoxigenin-L-tyrosine except 25 microliters of each digitoxin standard was used.

[3] = digitoxin standard 0.0 ng/ml, 25 microliters
[4] = digitoxin standard 4.0 ng/ml, 25 microliters
[5] = digitoxin standard 10.0 ng/ml, 25 microliters
[6] = digitoxin standard 20.0 ng/ml, 25 microliters
[7] = digitoxin standard 30.0 ng/ml, 25 microliters
[8] = digitoxin standard 50.0 ng/ml, 25 microliters
[9] = digitoxin standard 100.0 ng/ml, 25 microliters

For `C[C@]12CC[C@H](OC(=O)CCCCC(=O)N[C@@H](Cc3ccc(O)cc3)C(=O)O)C[C@H]1CC[C@@H]1[C@@H]2C[C@@H](O)[C@]2(C)[C@@H](C3=CC(=O)OC3)CC[C@]12O` [3-adipyl-digoxigenin-L-tyrosine], the Mean % bound ([1]; control, no antibody) was 3.9%, the “% bound” value ([1]; control, no antibody) was 4.0% and 3.6% and the Mean % bound ([1]; digoxin standard 0 ng/ml) was 65.2%. The “% bound” value ([1]; digoxin standard 0 ng/ml) was 66.4% and 64.8% and 64.3%, the Mean % bound ([1]; digoxin standard 1.0 ng/ml) was 46.8% and the “% bound” value ([1]; digoxin standard 1.0 ng/ml) was 46.1% and 47.0% and 47.3%. For the same compound, the Mean % bound ([1]; digoxin standard 2.0 ng/ml) was 33.4%, the “% bound” value ([1]; digoxin standard 2.0 ng/ml) was 34.8% and 32.2% and 33.3% and the Mean % bound ([1]; digoxin standard 3.0 ng/ml) was 25.4%. The “% bound” value ([1]; digoxin standard 3.0 ng/ml) was 26.1% and 25.1% and 25.0%, the Mean % bound ([1]; digoxin standard 5.0 ng/ml) was 17.2% and the “% bound” value ([1]; digoxin standard 5.0 ng/ml) was 16.9% and 16.5% and 18.0%. The Mean % bound ([1]; digoxin standard .4 ng/ml) was 57.5% and the “% bound” value ([1]; digoxin standard .4 ng/ml) was 57.8% and 57.4% and 57.2%.
With `C[C@]12CC[C@H](OC(=O)NCC(=O)N[C@@H](Cc3ccc(O)cc3)C(=O)O)C[C@H]1CC[C@@H]1[C@@H]2C[C@@H](O)[C@]2(C)[C@@H](C3=CC(=O)OC3)CC[C@]12O` [3-carbodigoxigenin-glycyl-L-tyrosine] the Mean % bound ([1]; control, no antibody) was 5.2%, the “% bound” value ([1]; control, no antibody) was 5.5% and 5.4% and 4.8% and the Mean % bound ([1]; digoxin standard 0 ng/ml) was 56.6%. The “% bound” value ([1]; digoxin standard 0 ng/ml) was 57.0% and 55.8% and 56.9%, the Mean % bound ([1]; digoxin standard 1.0 ng/ml) was 41.3% and the “% bound” value ([1]; digoxin standard 1.0 ng/ml) was 39.4% and 41.7% and 42.9%. The Mean % bound ([1]; digoxin standard 2.0 ng/ml) was 31.6%, the “% bound” value ([1]; digoxin standard 2.0 ng/ml) was 31.5% and 31.7% and 31.4% and the Mean % bound ([1]; digoxin standard 3.0 ng/ml) was 25.3%. The “% bound” value ([1]; digoxin standard 3.0 ng/ml) was 25.5% and 23.3% and 26.9%, the Mean % bound ([1]; digoxin standard 5.0 ng/ml) was 17.9% and the “% bound” value ([1]; digoxin standard 5.0 ng/ml) was 18.3% and 18.2% and 17.1%. For the same compound, the Mean % bound ([1]; digoxin standard .4 ng/ml) was 51.3% and the “% bound” value ([1]; digoxin standard .4 ng/ml) was 50.8% and 51.4% and 51.8%.
For `C[C@]12CC[C@H](OC(=O)CCC(=O)N[C@@H](Cc3ccc(O)cc3)C(=O)O)C[C@H]1CC[C@@H]1[C@@H]2CC[C@]2(C)[C@@H](C3=CC(=O)OC3)CC[C@]12O` [3-succinyl digitoxigenin-L-tyrosine], the Mean % bound ([2]; control, no antibody) was 18.8%, the “% bound” value ([2]; control, no antibody) was 18.0% and 18.9% and 19.4% and the Mean % bound [2, 3] was 70.2%. For the same compound, the “% bound” value [2, 3] was 70.8% and 70.7% and 69.0%, the Mean % bound [2, 4] was 67.3% and the “% bound” value [2, 4] was 67.3% and 67.6% and 66.9%. For the same compound, the Mean % bound [2, 5] was 59.9%, the “% bound” value [2, 5] was 59.9% and 60.2% and 59.5% and the Mean % bound [2, 6] was 46.8%. For the same compound, the “% bound” value [2, 6] was 45.8% and 47.3% and 47.2%, the Mean % bound [2, 7] was 35.6% and the “% bound” value [2, 7] was 33.9% and 36.7% and 36.2%. The Mean % bound [2, 8] was 27.7%, the “% bound” value [2, 8] was 26.5% and 29.4% and 27.1% and the Mean % bound [2, 9] was 22.9%. The “% bound” value [2, 9] was 22.2% and 22.5% and 24.0%.
`C[C@]12CC[C@H](OC(=O)CCC(=O)N[C@@H](Cc3ccc(O)cc3)C(=O)O)C[C@H]1CC[C@@H]1[C@@H]2C[C@@H](O)[C@]2(C)[C@@H](C3=CC(=O)OC3)CC[C@]12O` [3-succinyl-digoxigenin-L-tyrosine] was tested, and the Mean % bound ([1]; control, no antibody) was 5.5%, the “% bound” value ([1]; control, no antibody) was 5.7% and 6.0% and 4.7% and the Mean % bound ([1]; digoxin standard 0 ng/ml) was 66.8%. For the same compound, the “% bound” value ([1]; digoxin standard 0 ng/ml) was 67.2% and 65.4% and 67.7%, the Mean % bound ([1]; digoxin standard 1.0 ng/ml) was 49.0% and the “% bound” value ([1]; digoxin standard 1.0 ng/ml) was 48.6% and 49.8%. The Mean % bound ([1]; digoxin standard 2.0 ng/ml) was 35.5%, the “% bound” value ([1]; digoxin standard 2.0 ng/ml) was 35.0% and 34.6% and 36.9% and the Mean % bound ([1]; digoxin standard 3.0 ng/ml) was 27.2%. The “% bound” value ([1]; digoxin standard 3.0 ng/ml) was 27.4% and 26.7% and 27.5%, the Mean % bound ([1]; digoxin standard 5.0 ng/ml) was 19.6% and the “% bound” value ([1]; digoxin standard 5.0 ng/ml) was 19.9% and 19.3% and 19.6%. The Mean % bound ([1]; digoxin standard .4 ng/ml) was 58.5% and the “% bound” value ([1]; digoxin standard .4 ng/ml) was 59.3% and 57.2% and 59.0%.
